Legend:
[1] = Growth inhibition of human NCI60 cells assessed as cell growth; type: functional; parameters: concentration or dose not given beside the values
[2] = Growth inhibition of human LOXIMVI cells; type: functional; conditions: LOX IMVI
Malme-3M = assay: Growth inhibition of human MALME-3M cells; type: functional
M14 = assay: Growth inhibition of human M14 cells; type: functional
MDA-MB-435 = assay: Growth inhibition of human MDA-MB-435 cells; type: functional
SK-MEL-2 = assay: Growth inhibition of human SK-MEL-2 cells; type: functional
SK-MEL-28 = assay: Growth inhibition of human SK-MEL-28 cells; type: functional
[3] = Growth inhibition of human UACC257 cells; type: functional
[4] = Growth inhibition of human UACC62 cells; type: functional
COLO 205 = assay: Growth inhibition of human COLO205 cells; type: functional
[5] = Growth inhibition of human HCC2998 cells; type: functional
HCT-116 = assay: Growth inhibition of human HCT116 cells; type: functional
[6] = Growth inhibition of human HCT15 cells; type: functional
HT-29 = assay: Growth inhibition of human HT-29 cells; type: functional
KM12 = assay: Growth inhibition of human KM12 cells; type: functional
SW-620 = assay: Growth inhibition of human SW620 cells; type: functional
A549 = assay: Growth inhibition of human A549 cells; type: functional
[7] = Growth inhibition of human EKVX cells; type: functional
HOP-62 = assay: Growth inhibition of human HOP62 cells; type: functional
[8] = Growth inhibition of human HOP92 cells; type: functional
NCI-H226 = assay: Growth inhibition of human NCI-H226 cells; type: functional
NCI-H23 = assay: Growth inhibition of human NCI-H23 cells; type: functional
NCI-H322M = assay: Growth inhibition of human NCI-H322M cells; type: functional
NCI-H460 = assay: Growth inhibition of human NCI-H460 cells; type: functional
NCI-H522 = assay: Growth inhibition of human NCI-H522 cells; type: functional
SF-268 = assay: Growth inhibition of human SF268 cells; type: functional
[9] = Growth inhibition of human SF295 cells; type: functional; conditions: SF-295
[10] = Growth inhibition of human SF539 cells; type: functional
SNB-19 = assay: Growth inhibition of human SNB19 cells; type: functional
SNB-75 = assay: Growth inhibition of human SNB75 cells; type: functional
U-251 = assay: Growth inhibition of human U251 cells; type: functional
Staphylococcus aureus = assay: Antimicrobial activity against Staphylococcus aureus ATCC 25923 after 12 to 18 hrs by 2-fold serial dilution method; type: functional
[11] = tested on: NCI-60 human cancer cell line panel (Homo sapiens); assay: Anticancer activity against NCI 60 human cancer cell lines assessed as mean cell growth in single dose assay
[12] = read-out: LC50 (the source's name)

With `Cc1ccc(-n2n[n+](C)c3c2C(=O)c2ccccc2C3=O)cc1.O=S(=O)([O-])C(F)(F)F` the Activity [1] was 11.53%, the GI50 [2] was 1.8 µM and the CC50 [2, 12] was 23 µM. It also gave a GI50 (Malme-3M) of 0.32 µM, a CC50 (Malme-3M; [12]) of 13 µM and a GI50 (M14) of 0.26 µM. The CC50 (M14; [12]) was 3.57 µM, the GI50 (MDA-MB-435) was 0.17 µM and the CC50 (MDA-MB-435; [12]) was 0.6 µM. For the same compound, the GI50 (SK-MEL-2) was 2.17 µM, the CC50 (SK-MEL-2; [12]) was 41.1 µM and the GI50 (SK-MEL-28) was 2.65 µM. For the same compound, the CC50 (SK-MEL-28; [12]) was 36.5 µM, the GI50 ([3]; UACC-257) was 1.85 µM and the CC50 ([3]; UACC-257, read-out: LC50 (the source's name)) was 17.7 µM. It also gave a GI50 ([4]; UACC-62) of 1.65 µM, a CC50 ([4]; UACC-62, read-out: LC50 (the source's name)) of 6.38 µM and a GI50 (COLO 205) of 0.43 µM. The CC50 (COLO 205; [12]) was 4.43 µM, the GI50 ([5]; HCC 2998) was 1.13 µM and the CC50 ([5]; HCC 2998, read-out: LC50 (the source's name)) was 5.4 µM. It also gave a GI50 (HCT-116) of 1.55 µM, a CC50 (HCT-116; [12]) of 7.92 µM and a GI50 ([6]; HCT-15) of 2.44 µM. The CC50 ([6]; HCT-15, read-out: LC50 (the source's name)) was 41.2 µM, the GI50 (HT-29) was 2.1 µM and the LC50 (HT-29) was greater than 100 µM. The GI50 (KM12) was 1.38 µM, the CC50 (KM12; [12]) was 13.9 µM and the GI50 (SW-620) was 1.76 µM. The CC50 (SW-620; [12]) was 19.2 µM, the GI50 (A549) was 1.11 µM and the CC50 (A549; [12]) was 10 µM. For the same compound, the GI50 [7] was 4.16 µM, the CC50 [7, 12] was 46.8 µM and the GI50 (HOP-62) was 2.16 µM. The CC50 (HOP-62; [12]) was 17.8 µM, the GI50 ([8]; HOP-92) was 0.42 µM and the CC50 ([8]; HOP-92, read-out: LC50 (the source's name)) was 46.8 µM. It also gave a GI50 (NCI-H226) of 2.93 µM, a CC50 (NCI-H226; [12]) of 36.1 µM and a GI50 (NCI-H23) of 0.65 µM. It also gave a CC50 (NCI-H23; [12]) of 6.07 µM, a GI50 (NCI-H322M) of 0.88 µM and a CC50 (NCI-H322M; [12]) of 5.38 µM. It also gave a GI50 (NCI-H460) of 0.33 µM, a CC50 (NCI-H460; [12]) of 6.13 µM and a GI50 (NCI-H522) of 8.14 µM. It also gave a CC50 (NCI-H522; [12]) of 60 µM, a GI50 (SF-268) of 3.14 µM and a CC50 (SF-268; [12]) of 4.43 µM. It also gave a GI50 [9] of 1.04 µM, an LC50 (concentration killing 50% of cells) [9] of 5.4 µM and a GI50 ([10]; SF-539) of 1.97 µM. The CC50 ([10]; SF-539, read-out: LC50 (the source's name)) was 9.89 µM, the GI50 (SNB-19) was 1.39 µM and the LC50 (SNB-19) was 5.48 µM. It also gave a GI50 (SNB-75) of 2.09 µM, a CC50 (SNB-75; [12]) of 8.91 µM and a GI50 (U-251) of 2.43 µM. It also gave an LC50 (U-251) of 31.8 µM and an MIC (Staphylococcus aureus) of 4 µg/mL.

`C[n+]1nn(Cc2ccccc2)c2c1C(=O)c1ccccc1C2=O.[Cl-]` showed an MIC (Staphylococcus aureus) of 2 µg/mL and an Activity [11] of -37.9%.

With `Cn1n[n+](C)c2c1C(=O)c1ccccc1C2=O.[Cl-]` the MIC (Staphylococcus aureus) was 2 µg/mL and the Activity [11] was -46%.

From ChEMBL document CHEMBL3232814, “Synthesis and anticancer structure activity relationship investigation of cationic anthraquinone analogs” (2014)
